From the NIST ThermoML archive (doi:10.1016/j.jct.2009.06.014)

Legend:
[1] = xn = mol fraction of the nth substance listed; settings: 101 kPa, Liquid, Vibrating tube method
[2] = wn = mass fraction of the nth substance listed; settings: 101 kPa, Liquid, Vibrating tube method

C1CCOC1 [tetrahydrofuran] + O
mass density [kg/m3], [1]
Settings	293.15 K	298.15 K	303.15 K	308.15 K	313.15 K	318.15 K	323.15 K	328.15 K	333.15 K
x2 = 0	889.47	885.04	880.76	876.63	872.62	868.72	864.91	861.19	855.57
x2 = 0.307	909.02	904.73	900.6	896.6	892.72	888.93	885.23	881.59	878.02
x2 = 0.5048	927.43	923.37	919.45	915.67	912.03	908.48	905.02	901.65	898.3
x2 = 0.6429	944.68	940.84	937.15	933.61	930.19	926.87	923.65	920.5	917.43
x2 = 0.8027	968.99	965.85	962.77	959.82	956.98	954.25	951.59	949.01	946.48
x2 = 0.8555	979.39	976.67	974.08	971.62	969.26	966.98	964.79	962.66	960.59
x2 = 0.9025	987.96	986.24	984.38	982.6	980.91	979.36	977.79	976.28	974.8
x2 = 0.9402	992.74	991.5	990.32	989.18	988.11	987.04	986	985.02	983.98
x2 = 0.9719	995.94	995.45	994.98	994.52	994.07	993.63	993.19	992.76	992.33

CCCC[N+](CCCC)(CCCC)CCCC.[Br-] [tetrabutylammonium bromide] + O
mass density [kg/m3], [2]
Settings	w1 = 0.0697	w1 = 0.0999	w1 = 0.15	w1 = 0.1996	w1 = 0.25	w1 = 0.2998	w1 = 0.3499	w1 = 0.4002	w1 = 0.4498	w1 = 0.5
293.15 K	1003.85	1006.63	1011.35	1017.09	1021.73	–	1030.98	1036.25	1041.41	1044.73
298.15 K	1002.43	1005.08	1009.55	1015.11	1019.26	1027.44	1027.91	1032.9	1037.83	1041.06
303.15 K	1000.8	1003.31	1007.54	1012.76	1016.66	1024.31	1024.77	1029.49	1034.23	1037.36
308.15 K	998.95	1001.34	1005.34	1010.24	1013.92	1021.1	1021.55	1026.04	1030.59	1033.62
313.15 K	996.91	999.19	1002.97	1007.59	1011.06	1017.82	1018.26	1022.53	1026.92	1029.85
318.15 K	994.7	996.86	1000.45	1004.8	1008.08	1014.47	1014.9	1018.98	1023.21	1026.05
323.15 K	992.32	994.38	997.78	1001.88	1005	1011.05	1011.47	1015.38	1019.46	1022.22
328.15 K	989.78	991.74	994.96	998.84	1001.81	1007.56	1007.97	1011.71	1015.67	1018.35
333.15 K	987.09	988.96	992	995.69	998.5	1004	1004.4	1008	1011.83	1014.45
